Assay results as given in publication PMC8065212, “The active form of the influenza cap-snatching endonuclease inhibitor baloxavir marboxil is a tight binding inhibitor” (The Journal of Biological Chemistry, 2021).
pIC50, pKi: −log10 of the molar value. Where “and” joins values, the source holds several entries; their conditions need not be identical. Equal entries are not always repeated. Entries after “also recorded” stand apart in the source; their conditions may differ. Where two headings read alike, the source gives them in different places.

Key:
[1] = target: FluB-ht WT (recombinant influenza B heterotrimeric PA/PB1/PB2 polymerase, PA endonuclease) (Influenza B virus, UniProt Q5V8Z9); experiment: biochemical
FluB-ht = experiment: Michaelis-Menten kinetics of BXA inhibition; type: biochemical, Influenza B; conditions: 25 nM FluB-ht, substrate as indicated
Excerpt: Supplementary Figure S4. Michaelis-Menten kinetics of BXA inhibition. (A) Scheme detailing the experimental setup and representative data showing the effect of BXA on substrate utilization by FluB-ht. (B) Graphic representation and analysis of the data presented in panel A are shown on the left-hand side graph. The effects of increasing concentrations of BXA on kcat and Km are illustrated on the right-hand side graph. Data represents the average of two independent experiments. The final reaction conditions were as follows: 30 mM Tris-HCL pH 7.5, 25 mM NaCl, 5 mM MgCl2, 25 nM FluB-ht, 1.7 µM vRNA, 5% DMSO, BXA as indicated and 20-nt capped substrate as indicated. The indicated substrate concentrations were achieved by mixing 0.1 µM 20-nt radiolabeled capped substrate RNA with increasing amounts of unlabeled substrate. […] The data point at 2.1 µM was therefore not considered for kcat and Km measurements. […] Tight binding of enzyme and inhibitor depletes the concentration of free enzyme and the steady-state assumption is no longer valid.

[2] = system: cap-snatching endonuclease (PA); conditions: enzyme concentration not indicated; cited from earlier work
FluB-ht WT [3] = type: biochemical; conditions: 75 nM BXA, 55 nM FluB-ht WT
FluB-ht WT [4] = type: biochemical; conditions: 75 nM BXA
influenza infection = conditions: cited from earlier work
influenza virus = conditions: cited from earlier work
influenza = conditions: single dose, postexposure prophylaxis; placebo group 13.6%; cited from earlier work

Which results are given for O=C1c2c(O)c(=O)ccn2N([C@@H]2c3ccccc3SCc3c2ccc(F)c3F)[C@@H]2COCCN12 [BXA, baloxavir acid]?
pIC50 [1]: 6.95; pKi [1]: 7.92; dependence of IC50 on substrate concentration ([1]; 100, 300 and 500 nM 20-nt substrate, 55 nM FluB-ht WT (Fig. S1)): independent within a narrow range of substrate concentrations; slope of plot of IC50 versus enzyme concentration ([1]; WT): 0.56 and ~0.5; effects of increasing concentrations of BXA on kcat and Km (FluB-ht): reduction in kcat and constant Km values; pIC50 [2]: ~8.70; preincubation time for maximal inhibition (FluB-ht WT [3]): ~30 min; inhibition of endonuclease activity by order of addition (FluB-ht WT [4]; 55 nM FluB-ht WT, 1 hour preincubation): inhibition was only observed under conditions where an E:I:Mg^2+ complex was preformed; also recorded: Preincubation E, I, and MgCl2 is required for inhibition; nuclease activity over longer periods of time after preformed E:I:Mg2+ complex (FluB-ht WT [4]; up to 120 min): negligible

With CCOC(=O)C1=C[C@@H](OC(CC)CC)[C@H](NC(C)=O)[C@@H](N)C1 [oseltamivir] as the compound, how does the “reduction in time until symptom resolution” value (influenza infection) read?
Its value is 20–25%.

For COC(=O)OCOc1c2n(ccc1=O)N([C@@H]1c3ccccc3SCc3c1ccc(F)c3F)[C@@H]1COCCN1C2=O [BXM, Baloxavir marboxil], which EC50 (influenza virus) is on record?
Its EC50 is “low nanomolar range”.

What about the “reduction in time until symptom resolution” value (influenza infection; human, in vivo) of the same compound?
The value was 20–25%.

And the household transmissions (influenza)?
The household transmissions was 1.9%.
